Data as given in patent publication US20250129344A1, “MODIFIED GLUTAMATE DEHYDROGENASE AND APPLICATION THEREOF” (Hunan Lier Biotech Co., Ltd., priority 2021, published 2025).

Columns and labels:
Assay in all cases: Dynamic properties (Michaelis-Menten) of BvGluDH mutant, PPO reductive amination
Type in all cases: biochemical
Conditions in all cases: PPO 5-100 mM, NADPH 0.15 mM, NH4Cl 50 mM, PBS pH 7.5, 30° C., diluted crude enzyme, 340 nm
[1] = system: Bacillus velezensis glutamate dehydrogenase (BvGluDH, SEQ ID NO: 1) variant A175G, SEQ ID NO: 3
Experimental: (§1) A plurality of reaction systems (200 μL) comprising PBS of 100 mM pH 7.5 (pH was adjusted with aqueous ammonia solution), NADPH (reductive) of 0.15 mM, NH4Cl of 50 mM, diluted (500 folds) crude enzyme solution of 10% volume and the substrate PPO at various concentrations (5-100 mM) were formulated on a 96-well plate. The intensity of the UV absorption at 340 nm was detected at 30° C., and the rate of change in absorption over time (mA/min) was recorded. The obtained parameters were plugged into Michaelis-Menten equation, in which the reaction velocity was calculated with the rate of change in absorption.
(§2) The mutants were prepared with the coding nucleic acid of BvGluDH (SEQ ID NO: 1) as the template, and the enzyme activities and the dynamic parameters Vmax and Km were measured, according to the method of Example 1. The resulted mutants and the enzyme activities and the dynamic parameters thereof are shown in Table 1, and the relative enzyme activity means the percentage of the enzyme activity of the mutant to the enzyme activity of the mutant of SEQ ID NO: 3.

[2] = system: Bacillus velezensis glutamate dehydrogenase (BvGluDH, SEQ ID NO: 1) variant A175G-A182R, SEQ ID NO: 11
Experimental: as §1, §2

[3] = system: Bacillus velezensis glutamate dehydrogenase (BvGluDH, SEQ ID NO: 1) variant A175G-G181K, SEQ ID NO: 9
Experimental: as §1, §2

[4] = system: Bacillus velezensis glutamate dehydrogenase (BvGluDH, SEQ ID NO: 1) variant A175G-G181R, SEQ ID NO: 10
Experimental: as §1, §2

[5] = system: Bacillus velezensis glutamate dehydrogenase (BvGluDH, SEQ ID NO: 1) variant A175G-L104C, SEQ ID NO: 4
Experimental: as §1, §2

[6] = system: Bacillus velezensis glutamate dehydrogenase (BvGluDH, SEQ ID NO: 1) variant A175G-P132L, SEQ ID NO: 5
Experimental: as §1, §2

[7] = system: Bacillus velezensis glutamate dehydrogenase (BvGluDH, SEQ ID NO: 1) variant A175G-V173G, SEQ ID NO: 8
Experimental: as §1, §2

[8] = system: Bacillus velezensis glutamate dehydrogenase (BvGluDH, SEQ ID NO: 1) variant A175G-V173G-A182R, SEQ ID NO: 21
Experimental: as §1, §2

[9] = system: Bacillus velezensis glutamate dehydrogenase (BvGluDH, SEQ ID NO: 1) variant A175G-V173S, SEQ ID NO: 7
Experimental: as §1, §2

`CP(=O)(O)CCC(=O)C(=O)O` [PPO, 2-carbonyl-4-(hydroxymethylphosphono) butyric acid] gave a Km [1] of 73 mM, a Vmax [1] of 60 mA/min and a Km [2] of 46 mM. The Vmax [2] was 61 mA/min, the Km [3] was 80 mM and the Vmax [3] was 70 mA/min. The Km [4] was 84 mM, the Vmax [4] was 77 mA/min and the Km [5] was 34 mM. It also gave a Vmax [5] of 60 mA/min, a Km [6] of 32 mM and a Vmax [6] of 56 mA/min. For the same molecule, the Km [7] was 53 mM, the Vmax [7] was 80 mA/min and the Km [8] was 23 mM. It also gave a Vmax [8] of 71 mA/min, a Km [9] of 52 mM and a Vmax [9] of 79 mA/min.
